Active and inactive are the calls of the source. The rule behind the calls is not given here.
Experiments:
[1] = viability loss in HepG2 hepatoma cells – cell-based, plate reader, dry powder, set 3, cytotoxicity control, dose response (AID 720714); settings: HepG2 cytotoxicity, plate reader; at 26 µM (top of the series)
[2] = tested on: HepG2 cytotoxicity, plate reader; assay: as above

| Compound | activity change, negative = cytotoxicity [1] | AC50 [2] |
| --- | --- | --- |
| Cc1ccc2cc(CN(CC3CCCO3)C(=O)NC3CCCCC3)c(=O)[nH]c2c1C (stereo unspecified) | 64.3% (inactive) |  |
| Nc1nonc1C(=O)NCCNCc1cc(Br)ccc1OCc1ccc(F)cc1 | -54.9% (inactive) |  |
| CC(C)(C)NC(=O)CSc1nc2ccc(NC(=O)CSc3nnnn3Cc3ccccc3)cc2s1 |  | 15.5 µM |
| Cc1cc2c(cc(C(=O)N3CCC(C(=O)NC4CCCC4)CC3)n2Cc2c(F)cccc2Cl)o1 | 132% (inactive) |  |
| CCOC(=O)C1CCN(C(=O)c2ccc(OCC(=O)Nc3cccc(C(F)(F)F)c3)c(OC)c2)CC1 | 11.7% (inactive) |  |
| Cc1cc(N2CCCC2=O)cc(C)c1S(=O)(=O)NCCOc1ccc(C(C)(C)C)cc1 | 15.4% (inactive) |  |
| CN(C)c1nc(-c2ccccn2)nnc1-c1ccccc1 |  | 26.5 µM |
| CC(=O)Nc1cccc(NC(=O)CSc2ncc(-c3ccc(Cl)cc3)n2Cc2ccco2)c1 | -23% (inactive) |  |
| COc1cc(CN2CCc3ccccc3C2)ccc1O |  | 21.6 µM |
| COc1ccccc1N1CCN(c2ncc(C(=O)N3CCN(c4cccc(Cl)c4)CC3)c3ccccc23)CC1 | 111% (inactive) |  |
| COc1ccc(NS(=O)(=O)c2ccc(C(=O)N3CCCCCC3)cc2)cc1 | 41.5% (inactive) |  |
| CCCOc1ccccc1C1CC(=O)Nc2cc3c(cc21)OCO3 (stereo unspecified) | 73.2% (inactive) |  |
| CCCc1nnc(NC(=O)c2nc(S(=O)(=O)Cc3ccc(C)cc3)ncc2Cl)s1 | 26.2% (inactive) |  |
| CC(C)[C@H](NC(=O)OC(C)(C)C)c1nnc(S(=O)(=O)Cc2c(F)cccc2Cl)o1 | -90.6% (inactive) |  |
| Fc1ccc(-n2nnnc2-c2cnc(-c3cccs3)nc2C(F)(F)F)cc1 | 23.6% (inactive) |  |
| CN(CC(=O)Nc1cccc(S(=O)(=O)N2CCOCC2)c1)CC(=O)Nc1ccc(Cl)c(C(F)(F)F)c1 | -15.1% (inactive) |  |
| COc1cc2ncnc(N[C@H](C)c3ccccc3)c2cc1OC | 45.6% (inactive) |  |
| CC(=O)N1CCN(C(=O)CCc2cc(C(C)(C)C)c(O)c(C(C)(C)C)c2)CC1 | 84.8% (inactive) |  |
| COc1ccc(NC(=O)c2nc(S(=O)(=O)Cc3cccc(C)c3)ncc2Cl)c(OC)c1 | -19.7% (inactive) |  |
| O=C1CSc2ccc(C(=O)Nc3cccc(S(=O)(=O)Nc4ccc(Br)cc4)c3)cc2N1 | -35.1% (inactive) |  |
| CN(C(=O)COc1ccccc1C(=O)NCCOc1ccccc1)c1ccccc1 | -26.1% (inactive) |  |
| COc1ccc(Nc2nc(N3CCCCC3)c3ccccc3n2)cc1 | -24.8% (inactive) |  |
| O=C(c1nnsc1S(=O)c1ccc(Cl)cc1)N1CCOCC1 (stereo unspecified) |  | 14.5 µM |
| COc1ccc2c(c1)c(CC(=O)Nc1cc(C)ccc1C)c(C)n2C(=O)c1ccc(Cl)cc1 | 8.4% (inactive) |  |
| CN(C)S(=O)(=O)c1cccc(NC(=O)c2cccc(S(=O)(=O)N3CCc4ccccc43)c2)c1 | 10.3% (inactive) |  |
| O=c1c2ccccc2nc2n1C(CSCc1ccc(Cl)cc1Cl)CS2 (stereo unspecified) | -17.2% (inactive) |  |
